The text below walks through data of patent publication US20230365592A1 (Agios Pharmaceuticals, Inc., priority 2022, published 2023).

By AC50 is commonly meant the midpoint of the concentration-response curve, whichever way the signal moves.

In one experiment the target is T1, human PAH with the R408W mutation (Homo sapiens, UniProt P00439, R408W).
T1 construct: expressed in transfected cells
T1 sequence (P00439 1-452 R408W): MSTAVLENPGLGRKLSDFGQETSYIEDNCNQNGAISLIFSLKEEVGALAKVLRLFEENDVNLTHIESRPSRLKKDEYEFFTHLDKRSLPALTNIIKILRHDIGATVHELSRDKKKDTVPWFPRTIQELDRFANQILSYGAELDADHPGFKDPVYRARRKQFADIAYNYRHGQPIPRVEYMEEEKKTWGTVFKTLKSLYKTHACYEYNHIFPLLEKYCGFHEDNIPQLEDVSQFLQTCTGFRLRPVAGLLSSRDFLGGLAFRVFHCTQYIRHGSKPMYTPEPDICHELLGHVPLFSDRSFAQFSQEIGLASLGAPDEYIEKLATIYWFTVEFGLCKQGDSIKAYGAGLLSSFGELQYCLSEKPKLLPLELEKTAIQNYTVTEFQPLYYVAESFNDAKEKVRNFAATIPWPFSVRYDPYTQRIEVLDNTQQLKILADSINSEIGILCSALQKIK
Briefly: Cell Based Phenylalanine Flux Assay.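 Further: after compound treatment, cells received sepiapterin plus isotope-labelled Phenylalanine for 4 hours, then labelled Tyrosine in the medium was quantified, 10-point 2-fold dilution series run in duplicate.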 The conditions noted are these: A375 cells expressing R408W PAH; 24 hrs with compound, then 20 µM sepiapterin and 800 µM 13C9,15N-Phenylalanine for 4 hours; 13C-Tyrosine by LC-MS; average where tested multiple times; read-out: AC50.
Protocol: Compounds were resuspended in DMSO, and 2-fold serial dilutions were performed to generate a 10-point dose curve. Compounds were added to plated cells in a total volume of 100 µl, and a final DMSO concentration of 0.5%. Each compound was tested in duplicate. Following compound addition, cells were placed in a 5% CO2, 37° C. tissue culture incubator for 24 hrs. After the incubation period, 20 µM sepiapterin and 800 µM 13C9,15N-Phenylalanine were added. After 4 hours, cell media was removed. An aliquot of 10 µl of cell media was combined with 200 µl of extraction buffer (80% acetonitrile/20% H2O) for each well. Determination of ^13C-Tyrosine concentration was assessed by liquid chromatography mass spectrometry.
Where a compound was tested multiple times, the average value of the tests is reported.
`Cc1cccn2nc(C3c4nc[nH]c4CCN3c3nnc(C(=O)N(C)C)o3)cc12` (centres unmarked): the AC50 fell in the range of 1000 to 5000 nM.
Still for that read-out and setting: the value for `FC(F)c1cccc2cc([C@H]3c4nc[nH]c4CCN3c3nnc(C4CCC4)o3)nn12` (single isomer, unassigned) was over 5000 nM; that for `CC(C)(C)c1nnc(N2CCc3[nH]cnc3C2c2cc3cccc(C(F)F)n3n2)o1` (centres unmarked) was over 5000 nM.
The same measure, in the same setting: in the case of `Cc1cccn2nc(C3c4nc[nH]c4CCN3C(=O)c3oc(-c4ccccn4)nc3C(F)F)cc12` (centres unmarked) it was 1000 to 5000 nM; in that of `Cc1ccc2c(C(=O)N3CCc4[nH]cnc4C3c3cc4cccc(C)n4n3)cnn2c1` (centres unmarked), 1000 to 5000 nM.
On the same count and under the same terms, in the case of `Cc1cccn2nc(C3c4nc[nH]c4CCN3C(=O)c3cnn4cc(CCN(C)C)ccc34)cc12` (centres unmarked) it was 1000 to 5000 nM.
As to `Cc1ccc2c(C(=O)N3CCc4[nH]cnc4C3c3cc4cccc(Cl)n4n3)cnn2c1` (centres unmarked), the AC50 is over 5000 nM.
Same read-out and setting: the value for `COc1cccn2nc([C@@H]3c4nc[nH]c4CCN3C(=O)c3cnn4cc(CN(C)C)ccc34)cc12` (single isomer, unassigned) was 1000 to 5000 nM.
The same measure, in the same setting: in the case of `FC(F)(F)c1cccn2nc(C3c4nc[nH]c4CCN3c3nc4ccccc4o3)cc12` (centres unmarked) it was over 5000 nM.
On the same count and under the same terms, in the case of `CC(C)(O)c1nnc(C(=O)N2CCc3[nH]cnc3C2c2cc3ccc(C(F)(F)F)cn3n2)o1` (centres unmarked) it was 1000 to 5000 nM; in that of `Cc1c([C@@H]2c3nc[nH]c3CCN2C(=O)c2nnc(-c3cnn(C)c3C)o2)nn2ccccc12` (single isomer, unassigned), 1000 to 5000 nM; in that of `CN1CCN(c2nnc(C(=O)N3CCc4[nH]cnc4C3c3cc4ccccn4n3)o2)CC1` (centres unmarked), over 5000 nM.

The experiment is the same for the next values; noted with them: A375 cells expressing human PAH R408W; 24 hrs compound incubation; 13C-Tyrosine by LC-MS; average where tested multiple times; read-out: AC50.
As for `Cc1ncccc1-c1nnc(N2CCc3[nH]cnc3[C@@H]2c2cc3cccc(Cl)n3n2)o1` [Example 2331, (R)-2-(4-(7-chloropyrazolo[1,5-a]pyridin-2-yl)-1,4,6,7-tetrahydro-5H-imidazo[4,5-c]pyridin-5-yl)-5-(2-methylpyridin-3-yl)-1,3,4-oxadiazole], the concentration at half-maximal activity (AC50) is over 5000 nM.
As to `Nc1cnc(N2CCc3[nH]cnc3[C@H]2c2cc3c(F)cccn3n2)nc1` [Example 1837, (S)-2-(4-(4-fluoropyrazolo[1,5-a]pyridin-2-yl)-1,4,6,7-tetrahydro-5H-imidazo[4,5-c]pyridin-5-yl)pyrimidin-5-amine], the AC50 lay in the range of 500 to 1000 nM.
The same measure, in the same setting: the value for `COc1ccc2c(C(=O)N3CCc4[nH]cnc4[C@@H]3c3cc4cccc(Cl)n4n3)cnn2c1` [Example 2465, (R)-(4-(7-chloropyrazolo[1,5-a]pyridin-2-yl)-6,7-dihydro-1H-imidazo[4,5-c]pyridin-5(4H)-yl)(6-methoxypyrazolo[1,5-a]pyridin-3-yl)methanone] was over 5000 nM; that for `Cn1cc(-c2nnc(C(=O)N3CCc4[nH]cnc4[C@H]3c3cc4ccc(Br)cn4n3)o2)cn1` [Example 2488, (S)-(4-(6-bromopyrazolo[1,5-a]pyridin-2-yl)-1,4,6,7-tetrahydro-5H-imidazo[4,5-c]pyridin-5-yl)(5-(1-methyl-1H-pyrazol-4-yl)-1,3,4-oxadiazol-2-yl)methanone] was 1000 to 5000 nM.

Still in this experiment, the particulars now being: A375 cells expressing human R408W PAH; 24 hrs compound incubation; 13C-Tyrosine by LC-MS; average where tested multiple times; read-out: AC50.
In the case of `CC1(c2nnc(C(=O)N3CCc4[nH]cnc4[C@@H]3c3cc4cccc(Cl)n4n3)o2)CC1` [Example 1297, (R)-(4-(7-chloropyrazolo[1,5-a]pyridin-2-yl)-6,7-dihydro-1H-imidazo[4,5-c]pyridin-5(4H)-yl)(5-(1-methylcyclopropyl)-1,3,4-oxadiazol-2-yl)methanone], the half-maximal activity concentration (AC50) was in the range of 1000 to 5000 nM.
For `O=C(c1nnc(-c2ncccc2F)o1)N1CCc2[nH]cnc2[C@@H]1c1cc2c(Cl)cccn2n1` [Example 1294, (R)-(4-(4-chloropyrazolo[1,5-a]pyridin-2-yl)-6,7-dihydro-1H-imidazo[4,5-c]pyridin-5(4H)-yl)(5-(3-fluoropyridin-2-yl)-1,3,4-oxadiazol-2-yl)methanone], the concentration at half-maximal activity (AC50) lay in the range of 1000 to 5000 nM.
The same measure, in the same setting: the value for `O=C(c1cnn2ccccc12)N1CCc2[nH]cnc2[C@@H]1c1cc2c(F)cccn2n1` [Example 1288, (R)-(4-(4-fluoropyrazolo[1,5-a]pyridin-2-yl)-6,7-dihydro-1H-imidazo[4,5-c]pyridin-5(4H)-yl)(pyrazolo[1,5-a]pyridin-3-yl)methanone] was 500 to 1000 nM.
The same measure, in the same setting: the value for `O=C(c1nnc(C2CC(F)(F)C2)o1)N1CCc2[nH]cnc2[C@H]1c1cc2c(C(F)(F)F)cccn2n1` [Example 1600, (S)-(5-(3,3-difluorocyclobutyl)-1,3,4-oxadiazol-2-yl)(4-(4-(trifluoromethyl)pyrazolo[1,5-a]pyridin-2-yl)-6,7-dihydro-1H-imidazo[4,5-c]pyridin-5(4H)-yl)methanone] was 500 to 1000 nM.
Same read-out and setting: in the case of `O=C(N1CCc2[nH]cnc2[C@H]1c1cc2ccccn2n1)C(F)(F)C1(O)CCC1` [Example 638, (S)-2,2-difluoro-2-(1-hydroxycyclobutyl)-1-(4-(pyrazolo[1,5-a]pyridin-2-yl)-6,7-dihydro-1H-imidazo[4,5-c]pyridin-5(4H)-yl)ethanone] it was under 500 nM.
Consider `Cc1cccn2nc([C@@H]3c4nc[nH]c4CCN3C(=O)c3oc([C@@H](C)O)nc3C(F)F)cc12` [Example 738, (4-(difluoromethyl)-2-((R)-1-hydroxyethyl)oxazol-5-yl)((S)-4-(4-methylpyrazolo[1,5-a]pyridin-2-yl)-6,7-dihydro-1H-imidazo[4,5-c]pyridin-5(4H)-yl)methanone], for which the AC50 is under 500 nM.
For the molecule `Cn1cc(-c2nnc(C(=O)N3CCc4[nH]cnc4[C@H]3c3cc4ccc(F)cn4n3)o2)cn1` [Example 1100, (S)-(4-(6-fluoropyrazolo[1,5-a]pyridin-2-yl)-6,7-dihydro-1H-imidazo[4,5-c]pyridin-5(4H)-yl)(5-(1-methyl-1H-pyrazol-4-yl)-1,3,4-oxadiazol-2-yl)methanone], the AC50 was in the range of 500 to 1000 nM.
The same measure, in the same setting: the value for `Cc1c(-c2nnc(C(=O)N3CCc4[nH]cnc4[C@H]3c3cc4c(OC(F)F)cccn4n3)o2)cnn1C` [Example 1658, (S)-(4-(4-(difluoromethoxy)pyrazolo[1,5-a]pyridin-2-yl)-6,7-dihydro-1H-imidazo[4,5-c]pyridin-5(4H)-yl)(5-(1,5-dimethyl-1H-pyrazol-4-yl)-1,3,4-oxadiazol-2-yl)methanone] was 500 to 1000 nM.
Take `CC1(c2nnc(C(=O)N3CCc4[nH]cnc4[C@H]3c3cc4ccccn4n3)o2)CC1` [Example 1284, (S)-(5-(1-methylcyclopropyl)-1,3,4-oxadiazol-2-yl)(4-(pyrazolo[1,5-a]pyridin-2-yl)-6,7-dihydro-1H-imidazo[4,5-c]pyridin-5(4H)-yl)methanone]: the AC50 is under 500 nM.
On the same count and under the same terms, in the case of `Cc1nc([C@@H](C)O)oc1C(=O)N1CCc2[nH]cnc2[C@@H]1c1cc2c(C)cccn2n1` [Example 753, (2-((R)-1-hydroxyethyl)-4-methyloxazol-5-yl)((R)-4-(4-methylpyrazolo[1,5-a]pyridin-2-yl)-6,7-dihydro-1H-imidazo[4,5-c]pyridin-5(4H)-yl)methanone] it was 1000 to 5000 nM; in that of `O=C(c1nnc(-c2ccccn2)o1)N1CCc2[nH]cnc2[C@H]1c1cc2cccc(F)n2n1` [Example 975, (S)-(4-(7-fluoropyrazolo[1,5-a]pyridin-2-yl)-6,7-dihydro-1H-imidazo[4,5-c]pyridin-5(4H)-yl)(5-(pyridin-2-yl)-1,3,4-oxadiazol-2-yl)methanone], under 500 nM; in that of `O=C(c1nnc(-c2ncccn2)o1)N1CCc2[nH]cnc2[C@H]1c1cc2c(Cl)cccn2n1` [Example 1411, (S)-(4-(4-chloropyrazolo[1,5-a]pyridin-2-yl)-6,7-dihydro-1H-imidazo[4,5-c]pyridin-5(4H)-yl)(5-(pyrimidin-2-yl)-1,3,4-oxadiazol-2-yl)methanone], under 500 nM.
Still for that read-out and setting: in the case of `O=C(c1cnn2ccccc12)N1CCc2[nH]cnc2[C@H]1c1cc2c(F)cccn2n1` [Example 1289, (S)-(4-(4-fluoropyrazolo[1,5-a]pyridin-2-yl)-6,7-dihydro-1H-imidazo[4,5-c]pyridin-5(4H)-yl)(pyrazolo[1,5-a]pyridin-3-yl)methanone] it was under 500 nM.
Consider `FC(F)c1cccn2nc([C@@H]3c4nc[nH]c4CCN3c3ncc(C(F)(F)F)cn3)cc12` [Example 1776, (S)-4-(4-(difluoromethyl)pyrazolo[1,5-a]pyridin-2-yl)-5-(5-(trifluoromethyl)pyrimidin-2-yl)-4,5,6,7-tetrahydro-1H-imidazo[4,5-c]pyridine], for which the AC50 is under 500 nM.
Still for that read-out and setting: the value for `N#Cc1ncoc1C(=O)N1CCc2[nH]cnc2[C@H]1c1cc2c(Cl)cccn2n1` [Example 686, (S)-5-(4-(4-chloropyrazolo[1,5-a]pyridin-2-yl)-4,5,6,7-tetrahydro-1H-imidazo[4,5-c]pyridine-5-carbonyl)oxazole-4-carbonitrile] was under 500 nM.
Same read-out and setting: in the case of `Cc1cccn2nc([C@@H]3c4nc[nH]c4CCN3C(=O)c3ccnn3C3CC3)cc12` [Example 860, (S)-(1-cyclopropyl-1H-pyrazol-5-yl)(4-(4-methylpyrazolo[1,5-a]pyridin-2-yl)-6,7-dihydro-1H-imidazo[4,5-c]pyridin-5(4H)-yl)methanone] it was under 500 nM.
